From patent US20090029983A1, “NOVEL HETEROCYCLIC COMPOUNDS HAVING ANTI-HBV ACTIVITY” (priority 2005, published 2009)

The compounds below were run on HBV (assay: HBV screening assay (viral DNA in baculovirus-HBV transduced HepG2 cells)). Details: Hepatitis B virus, HepG2, 72 h, read-out: EC50 (antiviral activity), HBV-transduced HepG2 cells, three days with compound, viral DNA by ELISA.
Type: cell-based
Protocol: HepG2 cells were transduced using a baculovirus to deliver the HBV genome essentially as previously described (Delaney et al. in Hepatology 1998; 28: 1134-1146). Transduced cells were cultured in supplemented EMEM media with 10% fetal bovine serum in a 5% CO2 incubator at 37° C. for three days in the presence of test compounds. The cells were lysed in a buffer containing 0.5% NP-40 and […] proteinase K. A solid-phase hybridization was performed to capture the viral DNA and to label the target DNA with Digoxigenin-labeled DNA probes. The viral DNA was detected by ELISA, using horseradish peroxidase-conjugated anti-digoxigenin antibodies.
The EC50 values were determined using ExcelFit software from the inhibition values of a titration curve for each compound. For CC50 determinations, the same titration of compounds was co-cultured with non-transduced HepG2 for three days under the conditions described above. The Promega CellTiter 96 Aqueous One Solution Cell Proliferation Assay was used to measure cell proliferation/viability. The CC50 values were determined using ExcelFit software from the inhibition values of the titration curve for each compound.

`CC(C)(C)OC(=O)N1Cc2nc3sc(C(N)=O)c(N)c3c(-c3cccs3)c2C1` [Compound 1, 3-Amino-6-tert-butyloxycarbonyl-4-thiophen-2-yl-6,7-dihydro-5H-1-thia-6,8-diaza-s-indacene-2-carboxylic acid amide] and `CC(C)(C)OC(=O)N1CCc2c(nc3sc(C(N)=O)c(N)c3c2-c2cccs2)C1` [Compound 30, 3-Amino-7-tert-butyloxycarbonyl-4-thiophen-2-yl-5,6,7,8-tetrahydro-1-thia-7,9-diaza-cyclopenta[b]naphthalene-2-carboxylic acid amide] cannot be ordered by EC50: greater than 10 µM for the first, greater than 10 µM for the second.

Compared with `NC(=O)c1sc2nc3c(c(-c4cccs4)c2c1N)CNC3` [Compound 2, 3-Amino-4-thiophen-2-yl-6,7-dihydro-5H-1-thia-6,8-diaza-s-indacene-2-carboxylic acidamide], `NC(=O)c1sc2nc3c(c(-c4cccs4)c2c1N)CCNC3` [Compound 29, 3-Amino-4-thiophen-2-yl-5,6,7,8-tetrahydro-1-thia-7,9-diaza-cyclopenta[b]naphthalene-2-carboxylic acidamide] is lower in EC50: 1 to 10 µM for the first, less than 1 µM for the second.

First: NC(=O)c1sc2nc3c(c(-c4cccs4)c2c1N)CN(CCCCl)C3 [Compound 3, 3-Amino-6-(3-chloro-propyl)-4-thiophen-2-yl-6,7-dihydro-5H-1-thia-6,8-diaza-s-indacene-2-carboxylic acid amide]
Second: CCCCCN1Cc2nc3sc(C(N)=O)c(N)c3c(-c3cccs3)c2C1 [Compound 16, 3-Amino-6-pentyl-4-thiophen-2-yl-6,7-dihydro-5H-1-thia-6,8-diaza-s-indacene-2-carboxylic acid amide]
The EC50 of the first is lower: 1 to 10 µM for the first, greater than 10 µM for the second.

First: NC(=O)c1sc2nc3c(c(-c4cccs4)c2c1N)CN(CC1CCCCO1)C3 (centres unmarked) [Compound 4, 3-Amino-6-(tetrahydro-pyran-2-ylmethyl)-4-thiophen-2-yl-6,7-dihydro-5H-1-thia-6,8-diaza-s-indacene-2-carboxylic acid amide]
Second: NC(=O)c1sc2nc3c(c(-c4cccs4)c2c1N)CN(CC1CCCCC1)C3 [Compound 11, 3-Amino-6-cyclohexylmethyl-4-thiophen-2-yl-6,7-dihydro-5H-1-thia-6,8-diaza-s-indacene-2-carboxylic acid amide]
The EC50 of the first is higher: greater than 10 µM for the first, 1 to 10 µM for the second. The second is the more potent here.

`COc1ccccc1-c1nc(CN2Cc3nc4sc(C(N)=O)c(N)c4c(-c4cccs4)c3C2)no1` [Compound 5, 3-Amino-6-[5-(2-methoxy-phenyl)-[1,2,4]oxadiazol-3-ylmethyl]-4-thiophen-2-yl-6,7-dihydro-5H-1-thia-6,8-diaza-s-indacene-2-carboxylic acid amide] and `Cc1ccccc1CN1Cc2nc3sc(C(N)=O)c(N)c3c(-c3cccs3)c2C1` [Compound 22, 3-Amino-6-(2-methyl-benzyl)-4-thiophen-2-yl-6,7-dihydro-5H-1-thia-6,8-diaza-s-indacene-2-carboxylic acid amide] fall in the same range of EC50: 1 to 10 µM for the first, 1 to 10 µM for the second.

`CC(C)CCN1Cc2nc3sc(C(N)=O)c(N)c3c(-c3cccs3)c2C1` [Compound 6, 3-Amino-6-(3-methyl-butyl)-4-thiophen-2-yl-6,7-dihydro-5H-1-thia-6,8-diaza-s-indacene-2-carboxylic aicd amide] and `CC(C)CN1Cc2nc3sc(C(N)=O)c(N)c3c(-c3cccs3)c2C1` [Compound 14, 3-Amino-6-isobutyl-4-thiophen-2-yl-6,7-dihydro-5H-1-thia-6,8-diaza-s-indacene-2-carboxylic acid amide] cannot be ordered by EC50: greater than 10 µM for the first, greater than 10 µM for the second.

Compared with `NC(=O)c1sc2nc3c(c(-c4cccs4)c2c1N)CN(Cc1ccccn1)C3` [Compound 7, 3-Amino-6-pyridin-2-ylmethyl-4-thiophen-2-yl-6,7-dihydro-5H-1-thia-6,8-diaza-s-indacene-2-carboxylic acid amide], `NC(=O)c1sc2nc3c(c(-c4cccs4)c2c1N)CN(Cc1cccnc1)C3` [Compound 20, 3-Amino-6-pyridin-3-ylmethyl-4-thiophen-2-yl-6,7-dihydro-5H-1-thia-6,8-diaza-s-indacene-2-carboxylic acid amide] is lower in EC50: greater than 10 µM for the first, less than 1 µM for the second.

First: NC(=O)c1sc2nc3c(c(-c4cccs4)c2c1N)CN(CC1CC1)C3 [Compound 8, 3-Amino-6-cyclopropylmethyl-4-thiophen-2-yl-6,7-dihydro-5H-1-thia-6,8-diaza-s-indacene-2-carboxylic acid amide]
Second: NC(=O)c1sc2nc3c(c(-c4cccs4)c2c1N)CN(CCO)C3 [Compound 15, 3-Amino-6-(2-hydroxy-ethyl)-4-thiophen-2-yl-6,7-dihydro-5H-1-thia-6,8-diaza-s-indacene-2-carboxylic acid amide]
The EC50 of the first is higher: greater than 10 µM for the first, 1 to 10 µM for the second. The second is the more potent here.

Compared with `NC(=O)c1sc2nc3c(c(-c4cccs4)c2c1N)CN(CCOC(=O)c1ccccc1)C3` [Compound 9, 3-Amino-6-(2-benzoyloxy-ethyl)-4-thiophen-2-yl-6,7-dihydro-5H-1-thia-6,8-diaza-s-indacene-2-carboxylic acid amide], `NC(=O)c1sc2nc3c(c(-c4cccs4)c2c1N)CN(CCc1ccccc1)C3` [Compound 10, 3-Amino-6-phenethyl-4-thiophen-2-yl-6,7-dihydro-5H-1-thia-6,8-diaza-s-indacene-2-carboxylic acid amide] is higher in EC50: 1 to 10 µM for the first, greater than 10 µM for the second.

`NC(=O)c1sc2nc3c(c(-c4cccs4)c2c1N)CN(CC(=O)c1ccc(Cl)cc1)C3` [Compound 12, 3-Amino-6-[2-(4-chloro-phenyl)-2-oxo-ethyl]-4-thiophen-2-yl-6,7-dihydro-5H-1-thia-6,8-diaza-s-indacene-2-carboxylic acidamide] and `NC(=O)c1sc2nc3c(c(-c4cccs4)c2c1N)CN(Cc1ccccc1)C3` [Compound 21, 3-Amino-6-benzyl-4-thiophen-2-yl-6,7-dihydro-5H-1-thia-6,8-diaza-s-indacene-2-carboxylic acid amide] fall in the same range of EC50: 1 to 10 µM for the first, 1 to 10 µM for the second.

First: CC(CO)CN1Cc2nc3sc(C(N)=O)c(N)c3c(-c3cccs3)c2C1 (centres unmarked) [Compound 13, 3-Amino-6-(3-hydroxy-2-methyl-propyl)-4-thiophen-2-yl-6,7-dihydro-5H--thia-6,8-diaza-s-indacene-2-carboxylic acid amide]
Second: COCCN1Cc2nc3sc(C(N)=O)c(N)c3c(-c3cccs3)c2C1 [Compound 17, 3-Amino-6-(2-methoxy-ethyl)-4-thiophen-2-yl-6,7-dihydro-5H-1-thia-6,8-diaza-s-indacene-2-carboxylic acid amide]
The EC50 of the first is lower: 1 to 10 µM for the first, greater than 10 µM for the second.

`CCOC(=O)CN1Cc2nc3sc(C(N)=O)c(N)c3c(-c3cccs3)c2C1` [Compound 18, 3-Amino-6-carbethoxymethyl-4-thiophen-2-yl-6,7-dihydro-5H-1-thia-6,8-diaza-s-indacene-2-carboxylic acid amide] and `CC(O)CNCCCN1Cc2nc3sc(C(N)=O)c(N)c3c(-c3cccs3)c2C1` (centres unmarked) [Compound 28, 3-Amino-6-[3-(2-hydroxy-propylamino)-propyl]-4-thiophen-2-yl-6,7-dihydro-5H-1-thia-6,8-diaza-s-indacene-2-carboxylic acidamide] cannot be ordered by EC50: greater than 10 µM for the first, greater than 10 µM for the second.

`NC(=O)c1sc2nc3c(c(-c4cccs4)c2c1N)CN(CCN1C(=O)c2ccccc2C1=O)C3` [Compound 19, 3-Amino-6-[2-(1,3-dioxo-1,3-dihydro-isoindol-2-yl)-ethyl]-4-thiophen-2-yl-6,7-dihydro-5H-1-thia-6,8-diaza-s-indacene-2-carboxylic acid amide] and `NC(=O)c1sc2nc3c(c(-c4cccs4)c2c1N)CN(Cc1cccc(F)c1)C3` [Compound 23, 3-Amino-6-(3-fluoro-benzyl)-4-thipohen-2-yl-6,7-dihydro-5H-1-thia-6,8-diaza-s-indacene-2-carboxylic acid amide] cannot be ordered by EC50: greater than 10 µM for the first, greater than 10 µM for the second.

`COc1cc(CN2Cc3nc4sc(C(N)=O)c(N)c4c(-c4cccs4)c3C2)cc(OC)c1` [Compound 24, 3-Amino-6-(3,5-dimethoxy-benzyl)-4-thiophen-2-yl-6,7-dihydro-5H-1-thia-6,8-diaza-s-indacene-2-carboxylic acid amide] and `COC1CCCCN1CCCN1Cc2nc3sc(C(N)=O)c(N)c3c(-c3cccs3)c2C1` (centres unmarked) [Compound 26, 3-Amino-6-[3-(2-methoxy-piperidin-1-yl)-propyl]-4-thiophen-2-yl-6,7-dihydro-5H-1-thia-6,8-diaza-s-indacene-2-carboxylic acidamide] cannot be ordered by EC50: greater than 10 µM for the first, greater than 10 µM for the second.

`NC(=O)c1sc2nc3c(c(-c4cccs4)c2c1N)CN(CCCN1CCN(c2ncccn2)CC1)C3` [Compound 25, 3-Amino-6-[3-(4-pyrimidin-2-yl-piperazin-1-yl)-propyl]-4-thiophen-2-yl-6,7-dihydro-5H-1-thia-6,8-diaza-s-indacene-2-carboxylicacid amide] and `NC(=O)c1sc2nc3c(c(-c4cccs4)c2c1N)CN(CCCN1CCOCC1)C3` [Compound 27, 3-Amino-6-(3-morpholin-4-yl-propyl)-4-thiophen-2-yl-6,7-dihydro-5H-1-thia-6,8-diaza-s-indacene-2-carboxylic acid amide] cannot be ordered by EC50: greater than 10 µM for the first, greater than 10 µM for the second.

`CC(C)(C)OC(=O)N1CCc2nc3sc(C(N)=O)c(N)c3c(-c3cccs3)c2C1` [Compound 32, 3-Amino-6-tert-butyloxycarbonyl-4-thiophen-2-yl-5,6,7,8-tetrahydro-thieno[2,3-b][1,6]naphthyridine-2-carboxylic acidamide] and `Cc1ccc(-c2c3c(nc4sc(C(N)=O)c(N)c24)CCN(Cc2ccccc2)C3)o1` [Compound 33, 3-Amino-6-benzyl-4-(5-methyl-furan-2-yl)-5,6,7,8-tetrahydro-thieno[2,3-b][1,6]naphthyridine-2-carboxylic acidamide] cannot be ordered by EC50: greater than 10 µM for the first, greater than 10 µM for the second.
